Ends that are not written are not given here.
How the values were obtained:
Assay type in all cases: in vivo
breast cancer (4T1) = test: Breast cancer subcutaneous allograft mouse model; conditions: 4T1 allograft mice
prostate cancer (22Rv1) = test: Prostate cancer subcutaneous allograft mouse model; conditions: 22Rv1 allograft mice
ZDF diabetic rats = test: Blood sugar in ZDF diabetic rats after 6 days of treatment; conditions: IV daily for 6 days; MOTS-c 1 mg per 400 gram rat
Method: FIG. 33 describes Day 6 fasting blood sugars. ZDF diabetic rats were followed until their blood sugar was […], at which point treatment was initiated with one of two doses of MOTS-c or insulin, given IV at 8 AM for 6 days. 6 rats per group were used. Fasting blood sugars were measured after 6-days. ANOVA and student t-tests were used for analysis and p-values.
FIG. 34 describes absolute change in blood glucose at Day 6. In the same experiment described in FIG. 33, absolute changes in blood glucose are shown.

Substance	toxicity as reflected by body weight maintenance (breast cancer (4T1))	toxicity as reflected by body weight maintenance (prostate cancer (22Rv1))	absolute change in blood glucose at Day 6 (ZDF diabetic rats)
MRWQEMGYIFYPRKLR [MOTS3, MRWQEMGYIFYPRKLR]	not toxic	not toxic	
insulin: insulin given IV daily for 6 days as comparator in ZDF diabetic rats			stabilize their blood sugar at levels similar to baseline

Source: patent publication US10391143B2, “Mitochondrial-derived peptide MOTS3 regulates metabolism and cell survival” (THE REGENTS OF THE UNIVERSITY OF CALIFORNIA, priority 2013, dated 2019)
